Legend:
[1] = tested on: dd-strain male mice; experiment: Inhibitory effect on exploratory movements; format: in vivo; details: after 60 minutes
Experimental: 4.2. Inhibitory effect on exploratory movements:
Groups each comprising 16-35 dd-strain male mice were used. The compounds of the present invention were given intraperitoneally. After 60 minutes, exploratory movements for 15 minutes were measured with an exploratory movement recorder by a method of Tokyo Kyoiku University.

[2] = tested on: normal mice and SART stress mice; experiment: Analgesic effect, acetic acid writhing method; format: in vivo; details: Mus musculus, sc, 100 mg/Kg subcutaneously
How it was run: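 Normal mice and mice after 8 days of SART stress (5 per group) received 100 mg/Kg compound subcutaneously. Writhing was then induced with 0.7% acetic acid in isotonic saline, 0.1 ml/10 g i.p. Writhes were counted over 15 minutes and compared with control mice.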

[3] = tested on: dd-strain male mice; experiment: Antiulcerogenic effect on Takagi's restraint-plus-water-immersing ulcer; format: in vivo; details: Mus musculus, ip
Experimental: 6.1 Antiulcerogenic effect on Takagi's restraint-plus-water-immersing ulcer: Groups each comprising 8-26 dd-strain male mice were used. The tests were carried out according to a method of Takagi, et al. [Chem. Pharm. Bull.; 12, 465 (1964)]. Sum of length of diseased parts in the glandular stomach was measured and it was compared with that of control group. The compounds of the present invention or DPH was given intraperitoneally immediately before the restraint and immersion in water.

[4] = tested on: SART stress mice; experiment: Inhibitory effects on increase of heart rate and elongation of QRS-time in SART stress mice; format: in vivo, mice (dd-strain male); details: 9th day, Average ± S.D.
How it was run: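 Male dd-strain mice, 11 or 12 per group, in three groups under SART stress; heart rate and QRS-time measured on day 9 after test start.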

[5] = tested on: isolated duodenum; experiment: Recovery of acetylcholine sensitivity of isolated duodenum of SART stress mice (Magnus method); format: in vivo, mice (dd-strain male); details: 10 mg/kg/day intraperitoneal, 6th day, Ach 10^-7 g/ml, Average ± S.E.
From the text: SART stress animals used in the tests described below were raised according to a method of Kita, et al. [Folia Pharmacol. Japan.: 71, 195-210 (1975)].
3. Effect of recovering acetylcholine (Ach) sensitivity of isolated intestinal tract:
Groups each comprising at least 10 dd-strain male mice were used. The compounds of the present invention or other comparative drugs were given intraperitoneally once a day during the stress-causing operation. On the 6th day, Ach (10^-7 g/ml.) sensitivity of isolated duodenum was examined using the Magnus method.

[6] = tested on: dd-strain male mice; experiment: Inhibitory effect on spontaneous motor activities (Animex method); format: in vivo; details: after 60 minutes
Experimental: 4.1 Inhibitory effect on spontaneous motor activities:
Groups each comprising 8-16 dd-strain male mice were used. The compounds of the present invention were given intraperitoneally. After 60 minutes, spontaneous motor activities for 15 minutes were measured by the Animex method.

[7] = tested on: Wistar-strain male rats; experiment: Antiulcerogenic effect on Shay's ulcer (operative ulcer); format: in vivo; details: 10 times
Experimental: 6.2. Antiulcerogenic effect on Shay's ulcer (operative ulcer):
Tests were carried out by using groups of rats each comprising 5-10 Wistar-strain male rats according to Shay method [Shay Harry; Gastroenterology,; 5, 43 (1945)]. Ulcers in the anterior stomach were classified on the following basis:
2. 1-5 small ulcers (diameter of less than 3 mm)
3. 6 or more small ulcers or one big ulcer (diameter of more than 3 mm)
4. two or more big ulcers

[8] = tested on: normal mice and SART stress mice; experiment: Analgesic effect, tail pressure method (Randall-Selitto's device); format: in vivo, mice (ddY-strain male); details: for change in vivo at 100 mg/kg / change in vivo at 160 mg/kg: Mus musculus; for change in vivo at 160 mg/kg: peroral 160 mg/kg
How it was run: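 Randall-Selitto tail pressure threshold measured 60 min after intraperitoneal dosing, expressed as post/pre-dose pressure ratio versus vehicle control (0.5% CMC-Na or 0.5% Tween 80, 10 ml/kg). For oral dosing, mean of readings at 30, 60, 90 and 120 min used.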

[9] = tested on: ddY-strain male mice; experiment: Effect of prolongation of sleeping time (hexobarbital); format: in vivo; details: Mus musculus, ip; for change in vivo at 100 mg/kg: 100 mg/kg intraperitoneal; for change in vivo at 300 mg/kg: 300 mg/kg intraperitoneal
How it was run: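 Groups of 10 male ddY mice received compounds intraperitoneally along with intraperitoneal sodium hexobarbital. Loss of righting reflex was timed, and prolongation was measured against control mice.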

[10] = Acute toxicity test (LD50, Litchfield-Wilcoxon), rats; details: rat, in vivo, ip, intraperitoneal
Experimental: (§1) Toxicity tests were carried out by intraperitoneal administration of the compound of the present invention to groups each comprising 10 ICR-strain mice and SD-strain rats. LD50 was calculated by the Litchfield-Wilcoxon method based on the number of death 72 hours after the administration.

[11] = Acute toxicity test (LD50, Litchfield-Wilcoxon), mice; details: mouse, in vivo, ip, intraperitoneal
Experimental: as §1

[12] = ip, 1 h, SART stress mice, intraperitoneal 100 mg/kg, 60 minutes
[13] = ip, 1 h, normal mice, intraperitoneal 100 mg/kg, 60 minutes
[14] = po, SART stress mice, peroral 100 mg/kg, average of 30, 60, 90 and 120 minutes
[15] = po, normal mice, peroral 100 mg/kg, average of 30, 60, 90 and 120 minutes
[16] = SART stress mice, intraperitoneal 50 mg/kg, 60 minutes
[17] = normal mice, intraperitoneal 50 mg/kg, 60 minutes

Compound	Inhibitory effect on exploratory movements ([1]; 50 mg/kg intraperitoneal) [%]	Inhibitory effect on exploratory movements ([1]; 100 mg/kg intraperitoneal) [%]	inhibition in vivo at 100 mg/kg ([2]; SART stress mice) [%]	inhibition in vivo at 100 mg/kg ([2]; normal mice) [%]	Ach-induced contraction of the isolated deodedum [5] [%]	Inhibitory effect on spontaneous motor activities ([6]; 50 mg/kg intraperitoneal) [%]	Inhibitory effect on spontaneous motor activities ([6]; 100 mg/kg intraperitoneal) [%]	Antiulcerogenic effect on Shay's ulcer (operative ulcer) ([7]; 100 mg/kg intraperitoneal) [%]	Antiulcerogenic effect on Shay's ulcer (operative ulcer) ([7]; 150 mg/kg intraperitoneal) [%]	change in vivo at 100 mg/kg [8, 12] [%]	change in vivo at 100 mg/kg [8, 13] [%]	change in vivo at 100 mg/kg [8, 14] [%]	change in vivo at 100 mg/kg [8, 15] [%]	Analgesic effect [8, 16] [%]	Analgesic effect [8, 17] [%]	change in vivo at 100 mg/kg [9] [%]	change in vivo at 300 mg/kg [9] [%]	LD50 at 72 h ([10]; female) [mg/kg]	LD50 at 72 h ([10]; male) [mg/kg]	LD50 at 72 h ([11]; female) [mg/kg]	also measured
O=C1NC(=O)C(c2cc(O)c(O)c(O)c2)(c2cc(O)c(O)c(O)c2)N1 [Compound 36, 5,5-Bis(3,4,5-trihydroxyphenyl)hydantoin]	30.6	36.7	29.4	8.2	83 ± 8	37.8	49.1	30.1	43.9	180	67	102	49.9	120.5	44.0	11.3	46.7	1020	1320	780	inhibition in vivo at 125 mg/kg ([3]; 125 mg/kg intraperitoneal): 31.2%; Heart rate ([4]; 100 mg/kg/day): 737 ± 65 min⁻¹; QRS-time ([4]; 100 mg/kg/day): 13.8 ± 1.2 1/1000 sec; Analgesic effect ([8]; SART stress mice, peroral 50 mg/kg, average of 30, 60, 90 and 120 minutes): 63.3%; Analgesic effect ([8]; normal mice, peroral 50 mg/kg, average of 30, 60, 90 and 120 minutes): 40.3%; LD50 at 72 h ([11]; male): 820 mg/kg
COc1ccc(C2(c3ccc(OC)c(Cl)c3)NC(=O)NC2=O)cc1 (stereo not shown) [Compound 2, 5-(3-chloro-4-methoxyphenyl)-5-(4-methoxyphenyl)hydantoin]	29.0	38.8	27.1	4.4	80 ± 13	39.8	50.1	23.4	29.3	139	90.7	70	37.3	79.6	54.6	55.9	248	1540	1600	920	Inhibitory effect on exploratory movements ([1]; 125 mg/kg intraperitoneal): 47.8%; inhibition in vivo at 75 mg/kg ([3]; 75 mg/kg intraperitoneal): 15.4%; inhibition in vivo at 150 mg/kg ([3]; 150 mg/kg intraperitoneal): 36.6%; Heart rate ([4]; 50 mg/kg/day): 698 ± 42 min⁻¹; QRS-time ([4]; 50 mg/kg/day): 12.9 ± 0.8 1/1000 sec; Inhibitory effect on spontaneous motor activities ([6]; 125 mg/kg intraperitoneal): 56.3%; change in vivo at 160 mg/kg ([8]; po, SART stress mice, average of 30, 60, 90 and 120 minutes): 88.2%; change in vivo at 160 mg/kg ([8]; po, normal mice, average of 30, 60, 90 and 120 minutes): 50.2%; LD50 at 72 h ([11]; male): 1000 mg/kg

From patent US4281009A, “Hydantoin derivatives” (Nippon Zoki Pharmaceutical Co., Ltd., priority 1978, dated 1981)
